Marks after values point to notes of the source that are not given here.
What was measured:
[1] = test system: Plasmopara viticola; assay: Test D: grape downy mildew, spray after inoculation of grape seedlings; format: in vivo; conditions: 200 ppm
From the text: Upon removal, disease ratings were made. […] A dash (-) indicates no test results.

[2] = test system: Phytophthora infestans; assay: whole plant or invertebrate; format: in vivo; conditions: 200 ppm
[3] = test system: Septoria tritici; assay: Test J: wheat leaf blotch, preventive spray on wheat seedlings; format: in vivo
From the text: A dash (-) indicates no test results.

[4] = test system: fusarium graminearium; assay: Test I: wheat head scab, preventive spray on wheat seedlings; conditions: 200 ppm
Procedure: (the causal agent of wheat head scab) and incubated in a saturated atmosphere at 20° C. for 72 h, and then moved to a growth chamber at 22° C. for 5 days, after which disease ratings were made.

[5] = test system: Puccinia recondita f. sp. tritici; assay: Test K: wheat leaf rust, preventive spray on wheat seedlings
[6] = test system: Botrytis cinerea; assay: Test E: tomato botrytis, preventive spray on tomato seedlings
[7] = test system: Septoria nodorum; assay: Test H: wheat glum blotch, preventive spray on wheat seedlings
Procedure: (the causal agent of wheat glum blotch) and incubated in a saturated atmosphere at 20° C. for 48 h, and then moved to a growth chamber at 22° C. for 5 days, after which disease ratings were made.

[8] = test system: Erysiphe graminis f. sp. tritici; assay: Test L: wheat powdery mildew, preventive spray on wheat seedlings
[9] = test system: Sclerotinia sclerotiorum; assay: Test C: cucumber white mold, preventive spray on cucumber seedlings; conditions: 200 ppm
[10] = test system: Pythium aphanidermatum; assay: Test A: bluegrass pythium blight, preventive spray on bluegrass seedlings; conditions: 200 ppm
[11] = test system: Rhizoctonia oryzae; assay: Test G: turf brown patch, preventive spray on creeping bent grass seedlings
Procedure: (the causal agent of turf brown patch) and incubated in a saturated atmosphere at 27° C. for 24 h, and then moved to a growth chamber at 27° C. for 5 days, after which disease ratings were made.

[12] = test system: Colletotrichum orbiculare; assay: Test B: cucumber Colletotrichum anthracnose, preventive spray on cucumber seedlings

| SMILES | Test D disease control rating [1] | Test F disease control rating [2] | Test J disease control rating ([3]; 40 ppm (*)) | Test I disease control rating [4] | Test K disease control rating ([5]; 40 ppm (*)) | Test E disease control rating ([6]; 40 ppm (*)) | Test H disease control rating ([7]; 40 ppm (*)) | Test L disease control rating ([8]; 40 ppm (*)) | Test C disease control rating [9] | Test A disease control rating [10] | Test G disease control rating ([11]; 40 ppm (*)) | Test B disease control rating ([12]; 40 ppm (*)) | Test J disease control rating ([3]; 200 ppm) | Test K disease control rating ([5]; 200 ppm) | Test E disease control rating ([6]; 200 ppm) | Test H disease control rating ([7]; 200 ppm) | Test L disease control rating ([8]; 200 ppm) | Test G disease control rating ([11]; 200 ppm) | Test B disease control rating ([12]; 200 ppm) |
| --- | --- | --- | --- | --- | --- | --- | --- | --- | --- | --- | --- | --- | --- | --- | --- | --- | --- | --- | --- |
| O=c1c(-n2cccn2)nc(Cl)c(-c2c(F)cccc2F)n1CC1CCCO1 (stereo not drawn) [compound 91] | 0% | 0% | 93* % | 0% | 0* % | 92* % | 33* % | 0* % | 0% | 0% | 0* % | 0* % | – | – | – | – | – | – | – |
| O=c1c(-n2cncn2)nc(Cl)c(-c2c(F)cccc2F)n1CC1CCCO1 (stereo not drawn) [compound 92] | 0% | 0% | 7* % | 0% | 0* % | 0* % | 0* % | 0* % | 0% | 0% | 0* % | 0* % | – | – | – | – | – | – | – |
| COCC(C)n1c(-c2c(F)cccc2F)c(Cl)nc(-n2cccn2)c1=O (stereo not drawn) [compound 93] | 0% | 60% | 83* % | 0% | 98* % | 79* % | 96* % | 97* % | 0% | 0% | 70* % | 0* % | – | – | – | – | – | – | – |
| COCC(C)n1c(-c2c(F)cccc2F)c(Cl)nc(-n2cncn2)c1=O (stereo not drawn) [compound 94] | 0% | 0% | 14* % | 0% | 0* % | 0* % | 0* % | 0* % | 0% | 0% | 0* % | 0* % | – | – | – | – | – | – | – |
| COCCn1c(-c2c(F)cccc2F)c(Cl)nc(-n2cncn2)c1=O [compound 96] | 0% | 0% | 0* % | 0% | 0* % | 0* % | 0* % | 0* % | 0% | 0% | 0* % | 0* % | – | – | – | – | – | – | – |
| CSCCn1c(-c2c(F)cccc2F)c(Cl)nc(-n2cccn2)c1=O [compound 97] | 64% | 0% | 24* % | 0% | 0* % | 100* % | 0* % | 0* % | 0% | 0% | 0* % | 0* % | – | – | – | – | – | – | – |
| CSCCn1c(-c2c(F)cccc2F)c(Cl)nc(-n2cncn2)c1=O [compound 98] | 0% | 0% | 26* % | 0% | 0* % | 0* % | 0* % | 0* % | 0% | 0% | 0* % | 0* % | – | – | – | – | – | – | – |
| O=c1c(-n2cccn2)nc(Cl)c(-c2c(F)cccc2F)n1Cc1ccccc1 [compound 104] | 9% | 0% | – | 0% | – | – | – | – | 0% | 0% | – | – | 100% | 100% | 100% | 100% | 100% | 95% | 100% |
| COc1cc(OC)c(-c2c(Cl)nc(-n3cncn3)c(=O)n2CC(C)C)c(OC)c1 [compound 112] | 0% | 0% | 0* % | 57% | 0* % | 0* % | 0* % | 0* % | 0% | 0% | 0* % | 0* % | – | – | – | – | – | – | – |
| CC(C)Cn1c(-c2c(F)cccc2C(F)(F)F)c(Cl)nc(-n2cncn2)c1=O [compound 113] | 0% | 0% | 2* % | 98% | 0* % | 0* % | 0* % | 0* % | 93% | 0% | 26* % | 0* % | – | – | – | – | – | – | – |
| CC(C)Cn1c(-c2ccc3c(c2)OCO3)c(Cl)nc(-n2cncn2)c1=O [compound 114] | 0% | 0% | 89* % | 0% | 0* % | 97* % | 99* % | 0* % | 0% | 0% | 0* % | 0* % | – | – | – | – | – | – | – |
| CC(C)Cn1c(-c2cc(Br)c3c(c2)OCO3)c(Cl)nc(-n2cncn2)c1=O [compound 115] | 0% | 0% | 0* % | 0% | 0* % | 0* % | 0* % | 0* % | 0% | 0% | 0* % | 0* % | – | – | – | – | – | – | – |
| CC(C)Cn1c(-c2cc(Cl)cc(Cl)c2)c(Cl)nc(-n2cncn2)c1=O [compound 116] | 0% | 53% | 5* % | 0% | 0* % | 0* % | 0* % | 0* % | 0% | 0% | 0* % | 0* % | – | – | – | – | – | – | – |
| CC(C)Cn1c(-c2ccc(C(F)(F)F)cc2F)c(Cl)nc(-n2cncn2)c1=O [compound 117] | 0% | 0% | 2* % | 83% | 0* % | 0* % | 0* % | 0* % | 0% | 0% | 0* % | 0* % | – | – | – | – | – | – | – |
| CC(C)Cn1c(-c2ccc(Cl)cc2Cl)c(Cl)nc(-n2cncn2)c1=O [compound 118] | 0% | 16% | – | 81% | – | – | – | – | 98% | 0% | – | – | 100% | 91% | 99% | 92% | 0% | 71% | 96% |
| CC(C)Cn1c(-c2ccc3ccccc3c2)c(Cl)nc(-n2cncn2)c1=O [compound 119] | 0% | 0% | 68* % | 76% | 0* % | 0* % | 0* % | 0* % | 0% | 0% | 0* % | 0* % | – | – | – | – | – | – | – |

Source: patent publication US20080194585A1, “Fungicidal Pyrazine Derivatives” (priority 2005, published 2008)
